Results on four compounds are retold here after US8049020B2 (priority 2006, dated 2011).

One assay concerns murine splenocytes. In words: ConA mitogen-stimulated proliferation of murine splenocytes ([3H]-thymidine incorporation). The class given is cell-based, mouse (BALB/c). The note with it: for IC50: ConA 1 μg/ml, [3H]-thymidine incorporation, nonlinear regression, read-out: IC50 (dose of compound required to inhibit 50% of a proliferating population of murine splenocytes); for Effect on splenocyte proliferation (counts per minute vs concentration, FIG. 1 and 2): ConA-stimulated murine splenocytes, result in words. How it is done:
I. ConA Mitogen-Stimulated Proliferation of Murine Splenocytes
The concanavalin A (ConA) cell proliferation assay was used to assess the effect of test homoserine lactone (HSL) compounds on T-cell activation and proliferation. Proliferation was assessed by the incorporation of [^3H]-thymidine into DNA. Eight-week-old female BALB/c mice were obtained from Harlan (Bicester, Oxon, UK) and given food and water ad libitum. Splenocyte suspensions were prepared by removing the spleens and placing them into RPMI 1640 medium. The spleens were forced through 70-μm-pore-size wire gauzes using the plunger from a 5-ml syringe to produce a single cell suspension. The cells were pelleted by centrifugation, and erythrocytes were lysed with 0.017 M Tris, 0.144 M ammonium chloride buffer, pH 7.2. Leucocytes were washed twice with RPMI 1640 medium with 2% (vol/vol) foetal calf serum (FCS) and resuspended in complete cell culture medium (CTCM) consisting of RPMI 1640 medium with 5% FCS, 2 mM L-glutamine, and 5×10^−5 M 2-mercaptoethanol. HSL compounds were tested at doubling down dilutions ranging from 1 mM to 0.1 μM in a final volume of 200 μl of CTCM, containing ConA (Sigma, Poole, UK) at 1 μg/ml and 100,000 spleen cells. Following incubation for 48 h at 37° C. in 5% CO2-air, 0.25 μCi[^3H]-thymidine (Amersham) in 10 μl volume made up in RPMI 1640 medium was added and the cells were incubated for a further 24 h. Cells were harvested onto fibreglass filters with a Packard filtermate harvester. After the addition of 25 μl of MicroScint-O (Packard) to each well, the filters were counted with the Packard TopCount scintillation counter.
Mitogen (Concanavalin A) induced murine splenocyte proliferation was indicated by the incorporation of tritated thymidine into the DNA in the mouse spleen cells as shown by counts per minute using the scintillation counter. The inhibitory effect of an HSL compound being tested on cell proliferation was indicated by a reduction in counts per minute.
The IC50 value, i.e. the dose of compound (micromolar) required to inhibit 50% of a proliferating population of murine splenocytes, was determined for 4-aza-OdDHL, 4-methyl-4-aza-OdDHL and for the compound N-(2-fluoro-4-aza-3-oxododecanoyl)-L-homoserine lactone (2-fluoro-4-aza-OdDHL).
Background: Dividing cells build labelled thymidine or BrdU into new DNA.

The subject of assay [1] is E. coli JM109 harbouring the reporter plasmid pSB1075 (P. aeruginosa lasR gene and lasI promoter fused to luxCDABE). In words: Autoinducer activity: lux-based bioluminescence bioreporter assay. The note with it: 10 μM compound; 4 hours at 37° C.; relative to OdDHL. The format is cell-based. On the procedure:
Also determined for each of these compounds was the autoinducer activity as a measure of the ability of the compound to induce light production in a specifically designed bacterial bioreporter system. Autoinducer (A.I.) activity was measured by the ability of the test N-acyl homoserine lactone compound (AHL) to induce bioluminescence in E. coli containing a lux-based bioluminescence reporter plasmid. For detection of a long chain AHL, such as OdDHL, E. coli JM109 harbouring the reporter plasmid pSB1075 was used. This reporter contains the P. aeruginosa IasR gene and IasI promoter fused to IuxCDABE from P. luminescens and preferentially responds to AHLs with acyl chains of 10-14 carbons in length.
Bioassays were performed in 96 well microliter plates. Briefly, 10 μl of the compound being assessed was placed into a microliter well plate and serially diluted using LB broth to produce a concentration range from 100 μM to 100 fM. Similar dilutions were performed on a synthetic OdDHL and used as a positive control. One hundred microliters of an overnight biosensor strain was added to each well and light emission was measured following 4 hours incubation at 37° C. Light production was assessed as counts per second on Perkin Elmer TopCount apparatus calibrated to measure bioluminescence. Values are expressed as a percentage of the bioluminescence measured after exposure of the bioreporter to OdDHL for four hours at 37° C. Logarithmic regression analysis of the range of synthetic OdDHL dilutions typically returned coefficient of determination values above 0.96.

The next assay concerns murine spleen cells. As to conditions: Infection and Immunity, vol. 66, No. 1, January 1998; cited from earlier work.
Assay [2] relates to LPS-stimulated adherent murine peritoneal macrophages (TNF-α production). As to conditions: Infection and Immunity, vol. 66, No. 1, January 1998; cited from earlier work.

On to `CCCCCCCCNC(=O)C(F)C(=O)N[C@H]1CCOC1=O` (stereo partly drawn) [2-fluoro-4-aza-OdDHL, 4-Aza-2-fluoro-3-oxododecanoyl-L-homoserine lactone], for which, in the assay with murine splenocytes, the concentration for half-maximal inhibition (IC50) (usually the concentration that gives 50% inhibition) came to 21.8 µM. Moreover, the “AI activity (autoinducer activity, percentage of the bioluminescence measured after exposure to OdDHL)” value in assay [1] was found to be 19.9%.
`CCCCCCCCN(C)C(=O)CC(=O)N[C@H]1CCOC1=O` [4-methyl-4-aza-OdDHL, N-(4-aza-4-methyl-3-oxododecanoyl)-L-homoserine lactone]: in the assay with murine splenocytes, the IC50 came out at 14.6 µM; the “Effect on splenocyte proliferation (counts per minute vs concentration, FIG. 1 and 2)” value is on record as “inhibits splenoctye proliferation”. Further, the “AI activity (autoinducer activity, percentage of the bioluminescence measured after exposure to OdDHL)” value in assay [1] is 23.2%.
The corresponding values for `CCCCCCCCNC(=O)CC(=O)N[C@H]1CCOC1=O` [Example 4-aza-OdDHL, N-(4-aza-3-oxododecanoyl)-L-homoserine lactone] are 17.1 µM, “inhibits splenocyte proliferation” and 2.8%.
As for `CCCCCCCCCC(=O)CC(=O)N[C@H]1CCOC1=O` [OdDHL, N-(3-oxododecanoyl) homoserine lactone, reference compound], in the assay with murine splenocytes, the concentration for half-maximal inhibition (IC50) was 12.7 µM; the “Effect on splenocyte proliferation (counts per minute vs concentration, FIG. 1 and 2)” value is given as “inhibits splenocyte proliferation”. Further, the “Effect on ConA mitogen stimulated proliferation of murine spleen cells” value with murine spleen cells was “inhibiting”. Moreover, the “Effect on TNF-α production by LPS-stimulated adherent murine peritoneal macrophages” value in assay [2] was “inhibiting”. For the same compound, the “AI activity (autoinducer activity, percentage of the bioluminescence measured after exposure to OdDHL)” value in assay [1] turned out to be 100.0%.
